Assay results taken from patent US20250206751A1, “HETEROCYCLIC COMPOUND FOR INDUCING DEGRADATION OF G12D MUTANT KRAS PROTEIN” (Astellas Pharma Inc., priority 2022, published 2025).

Assays:
[1] = biological target: T1, KRAS G12D protein (Homo sapiens, UniProt P01116, G12D); assay: KRAS degradation activity by Cell ELISA in AsPC-1 (Test Example 1); format: cell-based; details: AsPC-1 cells, cultured overnight with compound, corrected with β-actin, read-out: DC50 (50% degradation concentration of the amounts of KRAS)
T1 construct: host or cells: AsPC-1
Method in brief: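 AsPC-1 cells (KRAS G12D), 2.0×10^4/well, treated overnight with compound (10 points, 10 μM–0.3 nM final) in RPMI 1640/10% FBS. Fixed cells immunostained for G12D-specific Ras and β-actin, with near-IR fluorescence read. Ras/actin ratio scaled DMSO = 0% and actin-only = 100%, and DC50 fitted by Sigmoid-Emax regression.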

[2] = test system: human KRAS G12D mutant-positive PK-59 pancreatic cancer cell line-derived xenograft; assay: Anti-tumor activity in PK-59 xenograft mice (Test Example 4); format: in vivo; details: 10 mg/kg into tail vein, once a week, twice in total; PK-59 xenograft nude mice
Description: Test Example 4: Evaluation of Anti-Tumor Activity in Human KRAS G12D Mutant -Positive PK-59 Pancreatic Cancer Cell Line-Derived Xenograft Mice
PK-59 cells (RIKEN BRC, RCB1901) were cultured using a RPMI 1640 medium containing 10% fetal bovine serum in the presence of 5% CO2 at 37° C. The PK-59 cells were collected and suspended in PBS, and after adding an equal amount of Matrigel (from Becton, Dickinson and Company), 4-5-week-old male nude mice (CAnN.Cg-Foxn1^nu/CrlCrlj (nu/nu), from Charles River Laboratories Japan) were subcutaneously inoculated with the cell suspension of 1.0-2.0×10^7 cells/mL in a volume of 100 μL per mouse. About two weeks after the inoculation, the mice were divided into groups so that all the groups had approximately the same tumor volume and body weight, and administration of test compounds was started on the next day. The study was conducted for 5 mice each of a vehicle group and test compound administration groups. The compounds were dissolved in a solvent containing ethanol (from FUJIFILM Wako Pure Chemical Corporation), a 5% glucose solution (from Otsuka Pharmaceutical), 1M hydrochloric acid (from Kanto Chemical Co., Inc.), 50% (2-hydroxypropyl)-β-cyclodextrin (HP-βCD) solution (from ROQUETTE), HCO-40 (from Nikko Chemicals Co., Ltd.) and 1M sodium hydroxide solution (from Kanto Chemical Co., Inc.) at a liquid amount ratio of 4:84.4:1.1:1:9:0.5. The test compounds dissolved in the respective solvent for the test compound administration groups and the solvent for the vehicle group were administered into tail vein. The administration was performed once a week and twice in total. The tumor sizes and the body weights were measured twice a week. The tumor volumes were calculated using the following equation.
[Tumor volume (mm^3)]=[Long diameter of the tumor (mm)]×[Short diameter of the tumor (mm)]^2×0.5
The tumor growth inhibition rate (%) by the test compounds were calculated with the tumor volumes of the test compound administration groups on the previous day of the start of the administration taken as 100% inhibition and the tumor volumes of the vehicle groups two weeks after the initial administration taken as 0% inhibition. In addition, when the tumor volume of a test compound administration group was smaller than the tumor volume on the previous day of the start of the administration, the tumor regression rate (%) by the test compound was calculated with the tumor volume on the previous day of the start of the administration taken as 0% regression and with the tumor volume 0 taken as 100% regression.

T1 sequence (P01116 1-188 isoform P01116-2 G12D): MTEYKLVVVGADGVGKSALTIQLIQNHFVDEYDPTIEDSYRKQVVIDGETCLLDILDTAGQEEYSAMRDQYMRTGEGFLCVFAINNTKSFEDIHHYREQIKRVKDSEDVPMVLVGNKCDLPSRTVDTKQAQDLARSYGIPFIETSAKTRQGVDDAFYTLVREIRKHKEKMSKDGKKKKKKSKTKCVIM

| DC50 [1] [nM] | Compound | Anti-Tumor Activity Two Weeks After Initial Administration: tumor regression rate [2] [% regression] | Anti-Tumor Activity Two Weeks After Initial Administration: tumor growth inhibition rate [2] [% inhibition] |
| --- | --- | --- | --- |
| 18 | CCN(c1nc(OC[C@H](C)OC)nc2c(OCc3ccc(-c4cn([C@H](C(=O)N5C[C@H](O)C[C@H]5C(=O)N[C@@H](CO)c5ccc(-c6scnc6C)cc5)C(C)C)nn4)cc3)c(-c3c(C)c(F)cc4[nH]ncc34)c(C3CC3)cc12)[C@H]1CCNC1 (atropisomer, axis not shown; (M)) [Example 50, (4R)-1-[(2S)-2-(4-{4-[({(7M)-6-cyclopropyl-4-{ethyl[(3S)-pyrrolidin-3-yl]amino}-7-(6-fluoro-5-methyl-1H-indazol-4-yl)-2-[(2S)-2-methoxypropoxy]quinazolin-8-yl}oxy)methyl)phenyl}-1H-1,2,3-triazol-1-yl)-3-methylbutanoyl]-4-hydroxy-N-{(1R)-2-hydroxy-1-[4-(4-methyl-1,3-thiazol-5-yl)phenyl]ethyl}-L-prolinamide] | 20 | – |
| 15 | Cc1ncsc1-c1ccc([C@H](CO)NC(=O)[C@@H]2C[C@@H](O)CN2C(=O)[C@H](C(C)C)n2cc(-c3ccc(COc4c(-c5c(C)c(F)cc6[nH]ncc56)c(C5CC5)cc5c(N(C)[C@H]6CCNC6)nc(OC[C@H]6CCCO6)nc45)cc3)nn2)cc1 (atropisomer, axis not shown; (M)) [Example 9, (4R)-1-[(2S)-2-{4-[4-({[(7M) 6-cyclopropyl-7-(6-fluoro-5-methyl-1H-indazol-4-yl)-4-{methyl[(3S)-pyrrolidin-3-yl]amino}-2-{[(2R)-oxolan-2-yl]methoxy}quinazolin-8-yl}oxy}methyl)phenyl]-1H-1,2,3-triazol-1-yl}-3-methylbutanoyl]-4-hydroxy-N-{(1R)-2-hydroxy-1-[4-(4-methyl-1,3-thiazol-5-yl)phenyl]ethyl}-L-prolinamide] | – | 81 |
| 10 | CCn1nccc1-c1ccc([C@H](CO)NC(=O)[C@@H]2C[C@@H](O)CN2C(=O)[C@H](C(C)C)n2cc(-c3ccc(COc4c(-c5c(C)c(F)cc6[nH]ncc56)c(C5CC5)cc5c(N(C)[C@H]6CCNC6)nc(OC[C@H](C)OC)nc45)cc3)nn2)cc1 (atropisomer, axis not shown; (M)) [Example 13] | 26 | – |
| 7 | CO[C@@H](C)COc1nc(N(C)[C@@H]2CCNC2)c2cc(C3CC3)c(-c3c(C)c(F)cc4[nH]ncc34)c(OCc3ccc(-c4cn([C@H](C(=O)N5C[C@H](O)C[C@H]5C(=O)N[C@@H](CO)c5ccc(-c6scnc6C)cc5)C(C)C)nn4)cc3)c2n1 (atropisomer, axis not shown; (M)) [Example 53] | 53 | – |
| 10 | CO[C@@H](C)COc1cc(N(C)[C@H]2CCNC2)c2cc(C3CC3)c(-c3c(C)c(F)cc4[nH]ncc34)c(OCc3ccc(-c4cn([C@H](C(=O)N5C[C@H](O)C[C@H]5C(=O)N[C@@H](CO)c5ccc(-c6scnc6C)cc5)C(C)C)nn4)cc3)c2n1 (atropisomer, axis not shown; (M)) [Example 11, (4R)-1-[(2S)-2-{4-[4-({[(7M)-6-cyclopropyl-7-(6-fluoro-5-methyl-1H-indazol-4-yl)-2-[(2S)-2-methoxypropoxy]-4-{methyl[(3S)-pyrrolidin-3-yl]amino}quinazolin-8-yl]oxy}methyl)phenyl]-1H-1,2,3-triazol-1-yl}-3-methylbutanoyl]-4-hydroxy-N-{(1R)-2-hydroxy-1-[4-(4-methyl-1,3-thiazol-5-yl)phenyl]ethyl}-L-prolinamide] | 6 | – |
